Holding throughout (experiment): NCI tumour cell line growth inhibition, 48 h
Assay [1] has as its system DLD-1 colon.
Assay [2] concerns DMS 114 small cell lung.
The test system of assay [3] is HOP-18 NSCLC.
Assay [4] relates to LXFL 529 NSCLC.
The subject of assay [5] is M19-MEL melanoma.
In assay [6] the test system is MDA-N.
Assay [7] deals with PC-3 prostate.
In assay [8] the test system is RXF-631 renal.
The test system of assay [9] is SNB-78 CNS.
Assay [10] relates to P388 leukemia.
Assay [11] deals with P388/ADR leukemia.

Several values for one entry are separate records, joined by “and”; a condition that tells them apart may be missing. Equal values may be shown once.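 A five-concentration, 48-hour dose response in 96-well plates underlies each endpoint, interpolated linearly between surrounding concentrations. Here, GI50 denotes the concentration required for 50% inhibition of growth. TGI is the concentration that stops growth completely.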

Consider `CCN(CC)CCn1ccc(=O)c2cc3c(=O)ccn(CCN(CC)CC)c3c(C)c21`, for which the TGI in [1] was determined as 7.83 µM; in assay [2] it was 27.6 µM; in assay [3], 30 µM; in assay [4] it was 16.5 µM; in [5], 25.2 µM; in [6], 18 µM. Besides, the TGI in assay [7] worked out at 15.9 µM; in assay [8], 21.5 µM; in assay [9] it was 26.9 µM.
With `CNC(=O)OCc1nc(SC2CCCCO2)n(C)c1COC(=O)NC` (centres undefined), the TGI in assay [1], in [2], in assay [3], in [4], in assay [5] and in assay [10] was more than 100 µM in each case. Besides, the TGI in assay [11], in [8] and in assay [9] was more than 100 µM throughout.
For the molecule `COc1cc(C2c3cc4c(cc3[C@@H](Nc3ccc(C#N)cc3)C3COC(=O)[C@H]23)OCO4)cc(OC)c1O` (some centres undefined), the TGI in [1] was 3.51 µM; in assay [2], 4.14 µM; in assay [3], 39.3 µM; in assay [6] it was 18.7 µM and > 100 µM; in assay [10] it was 0.832 µM; in assay [11] it was 2.11 µM. Moreover, the TGI was 50 µM and > 100 µM in assay [7]; 75 µM in assay [9]. For the same molecule, the GI50 in assay [7] is 2.81 µM.
As for `O=C(O)c1ccc([Se][Se]c2ccc(C(=O)O)cc2)cc1`, the TGI in assay [1] is more than 100 µM; in assay [2], 54 µM; in assay [3], 82.3 µM; in assay [4], 62.4 µM; in assay [5] it was 40.5 µM; in assay [8], 52.6 µM. The molecule also came in with a TGI in assay [9] of 52.4 µM.
